15 compounds from ChEMBL document CHEMBL1151578, “Benzopyran-4-carboxamide K+ channel openers” (Bioorg Med Chem Lett, 1993) can be followed below.

The species named for assay [1] is Rattus norvegicus. Briefly: Relaxation of rat aorta smooth muscle precontracted with 30 mM KCl (Negative logarithm of molar concentration required). The following applies: Muscle tissue. The assay is classed as functional, organism-based.
The species entered for assay [2] is Rattus norvegicus. The experiment in a line: Relaxation of rat aorta smooth muscle. The assay is classed as functional, Muscle tissue.

As a reminder, the EC50 is the concentration at which the effect is half-maximal. A high value points to weaker potency.

On to `CC1(C)C=C(C(=O)NCC2CC2)c2cc([N+](=O)[O-])ccc2O1`, for which the midpoint of the response in assay [1], the EC50, lay at 6.61 nM. This compound also had an Intrinsic activity in assay [2] of 89.3%. In assay [1], `CC(C)NC(=O)C1=CC(C)(C)Oc2ccc([N+](=O)[O-])cc21` had a half-maximal effective concentration (EC50) of 186 nM. The compound also displayed an Intrinsic activity in assay [2] of 77.6%.

As to `CC1(C)C=C(C(=O)NC2CC2)c2cc([N+](=O)[O-])ccc2O1`, the concentration for a half-maximal effect (EC50) in assay [1] is 32.4 nM. In addition, in assay [2], the Intrinsic activity is 78%. Regarding `CCNC(=O)C1=CC(C)(C)Oc2ccc([N+](=O)[O-])cc21`, the EC50 in assay [1] is 4.57 nM. The compound also registered an Intrinsic activity in assay [2] of 80.5%. In assay [1], `CC1(C)C=C(C(N)=O)c2cc([N+](=O)[O-])ccc2O1` gave an EC50 of 363 nM. Also, in assay [2], the Intrinsic activity amounted to 79.8%. In assay [1], `CC1(C)C=C(C(=O)NCCO)c2cc([N+](=O)[O-])ccc2O1` gave a concentration giving a half-maximal response (EC50) of 182 nM. In addition, the Intrinsic activity in assay [2] was 71.8%. In assay [2], `CNC(=O)C1=CC(C)(C)Oc2ccc([N+](=O)[O-])cc21` displayed an Intrinsic activity of 61%.

The compound `CCCNC(=O)C1=CC(C)(C)Oc2ccc([N+](=O)[O-])cc21` gave a half-maximal effective concentration (EC50) in assay [1] of 5.75 nM. Besides, in assay [2], the Intrinsic activity was found to be 74.1%. In the same order, the values of `CC1(C)C=C(C(=O)NCCF)c2cc([N+](=O)[O-])ccc2O1` are 20.4 nM and 81.6%.

In assay [2], `CC(N/C(=N\C#N)Nc1ccncc1)C(C)(C)C` (stereo unspecified) [PINACIDIL ANHYDROUS] came in with an Intrinsic activity of 91.9%. In turn, `CC1(C)Oc2ccc(C#N)cc2[C@H](N2CCCC2=O)[C@H]1O` (single isomer, unassigned) [(-)-CROMAKALIM] showed an EC50 in assay [1] of 170 nM. In assay [2], this compound had an Intrinsic activity of 74.7%. As for `CCCCNC(=O)C1=CC(C)(C)Oc2ccc([N+](=O)[O-])cc21`, the midpoint of the response in assay [1], the EC50, lay at 21.9 nM. Further, in assay [2], the Intrinsic activity is 83.2%. In turn, `CC1(C)C=C(C(=O)NCCC#N)c2cc([N+](=O)[O-])ccc2O1` came in with an Intrinsic activity in assay [2] of 73.1%. Turning to `C#CCNC(=O)C1=CC(C)(C)Oc2ccc([N+](=O)[O-])cc21`, in assay [1], the EC50 is 7.94 nM. The compound also had an Intrinsic activity in assay [2] of 80.2%. In assay [2], `CNC(=O)C1=CC(C)(C)Oc2ccc(C#N)cc21` returned an Intrinsic activity of 66.6%.
